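Values below derive from 48-hour exposures of cells grown in 96-well plates, with endpoints linearly interpolated between the two concentrations bracketing the appropriate inhibition level. Abbreviation: GI50, concentration required for 50% inhibition of growth. At the TGI there is no net growth.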
Key:
Assay in all cases: DTP human tumour cell line panel, 48 h
CCRF-CEM leukemia = test system: CCRF-CEM leukemia
SNB-19 CNS = test system: SNB-19 CNS
K-562 leukemia = test system: K-562 leukemia
CAKI-1 renal = test system: CAKI-1 renal
SK-OV-3 ovarian = test system: SK-OV-3 ovarian
A549 NSCLC = test system: A549 NSCLC
HOP-62 NSCLC = test system: HOP-62 NSCLC
MDA-MB-435 = test system: MDA-MB-435
MCF7 breast = test system: MCF7 breast
HOP-92 NSCLC = test system: HOP-92 NSCLC
MDA-N = test system: MDA-N

SMILES | TGI (CCRF-CEM leukemia) [µM] | TGI (SNB-19 CNS) [µM] | TGI (K-562 leukemia) [µM] | TGI (CAKI-1 renal) [µM] | TGI (SK-OV-3 ovarian) [µM] | TGI (A549 NSCLC) [µM] | TGI (HOP-62 NSCLC) [µM] | GI50 (MDA-MB-435) [µM] | TGI (MDA-MB-435) [µM] | GI50 (MCF7 breast) [µM] | TGI (MCF7 breast) [µM] | GI50 (CCRF-CEM leukemia) [µM] | GI50 (SNB-19 CNS) [µM] | GI50 (K-562 leukemia) [µM] | GI50 (SK-OV-3 ovarian) [µM] | GI50 (HOP-92 NSCLC) [µM] | TGI (HOP-92 NSCLC) [µM] | GI50 (A549 NSCLC) [µM] | GI50 (HOP-62 NSCLC) [µM] | TGI (MDA-N) [µM]
COc1cc(C2C(C(=O)O)=C(COC(C)=O)Oc3cc4c(cc32)OCO4)cc(OC)c1OC (centres undefined) | > 100 | > 100 | > 100 | > 100 | > 100 | > 100 | > 100 | – | – | – | – | – | – | – | – | – | – | – | – | –
CO/N=C(\C)COc1ccc2c(=O)c(-c3ccccc3)coc2c1 | > 100 | > 100 | > 100 | – | 80 | > 100 | 46.6 | > 100 | > 100 | 39 | > 100 | > 100 | 17.7 | > 100 | 21.9 | 17.2 | 43.9 | 27.1 | 17.8 | –
CCOC(=O)C(O)(NC(=O)c1ccccc1F)C(F)(F)F (centres undefined) | > 100 | > 100 | > 100 | > 100 | > 100 | > 100 | > 100 | – | > 100 | – | > 100 | – | – | – | – | – | > 100 | – | – | > 100
CCc1ccc2nc(-c3ccc(O)cc3)sc2c1 | – | 35.5 | 54.5 | 26.4 | 32.3 | 44.9 | – | – | 39.5 | – | 46.4 | – | – | – | – | – | – | – | – | 36

From PubChem BioAssay (NCI)
